# Values joined by “and” are separate entries in the source; they are usually repeats but may differ in a detail not shown here. Identical values can stand only once. Where a SMILES comes first, the peptide text is derived from it. Bridges are numbered along the chain shown (N, C = ends). The star is where a group is joined. X2 = CN(C)c1ccc2c(-c3cc(C(=O)*)ccc3C(=O)[O-])c3ccc(=[N+](C)C)cc-3oc2c1; X1 = C[N+]1=C(/C=C/C=C2/N(CCCCCC(=O)*)c3ccccc3C2(C)C)C(C)(C)c2ccccc21; BODIPY(FL) = CC1=CC(C)=[N+]2C1=Cc1ccc(CCC(=O)*)n1[B-]2(F)F
# Assays:
# rat α7 nAChRs = target: T1, rat α7 nAChRs (Rattus norvegicus, UniProt Q05941); test: cell-based; type: cell-based
# T1 construct: expressed in transfected cells; host or cells: Xenopus laevis oocytes injected with cRNA; plasmids from J. Michael McIntosh (University of Utah)
# T1 sequence (Q05941 23-502): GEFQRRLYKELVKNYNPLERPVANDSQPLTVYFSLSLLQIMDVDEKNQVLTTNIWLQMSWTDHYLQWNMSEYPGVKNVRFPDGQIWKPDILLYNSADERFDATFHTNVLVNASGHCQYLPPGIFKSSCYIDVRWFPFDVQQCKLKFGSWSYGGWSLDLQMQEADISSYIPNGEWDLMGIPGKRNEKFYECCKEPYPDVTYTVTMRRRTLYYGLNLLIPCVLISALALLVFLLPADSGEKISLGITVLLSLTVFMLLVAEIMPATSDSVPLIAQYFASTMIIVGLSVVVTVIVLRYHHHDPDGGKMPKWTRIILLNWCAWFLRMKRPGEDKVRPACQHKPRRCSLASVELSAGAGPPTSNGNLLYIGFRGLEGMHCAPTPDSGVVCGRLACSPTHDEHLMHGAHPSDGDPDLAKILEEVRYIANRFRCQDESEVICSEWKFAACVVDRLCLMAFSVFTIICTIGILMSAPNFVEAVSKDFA
# rat α6/α3β4 nAChRs = target: T2, rat α6/α3β4 nAChRs (Rattus norvegicus, UniProt P04757+P12392+P43143); type: cell-based
# T2 construct: expressed in transfected cells; host or cells: Xenopus laevis oocytes injected with cRNA; plasmids from J. Michael McIntosh (University of Utah)
# T2 sequence (P43143+P04757 fused with the stated changes): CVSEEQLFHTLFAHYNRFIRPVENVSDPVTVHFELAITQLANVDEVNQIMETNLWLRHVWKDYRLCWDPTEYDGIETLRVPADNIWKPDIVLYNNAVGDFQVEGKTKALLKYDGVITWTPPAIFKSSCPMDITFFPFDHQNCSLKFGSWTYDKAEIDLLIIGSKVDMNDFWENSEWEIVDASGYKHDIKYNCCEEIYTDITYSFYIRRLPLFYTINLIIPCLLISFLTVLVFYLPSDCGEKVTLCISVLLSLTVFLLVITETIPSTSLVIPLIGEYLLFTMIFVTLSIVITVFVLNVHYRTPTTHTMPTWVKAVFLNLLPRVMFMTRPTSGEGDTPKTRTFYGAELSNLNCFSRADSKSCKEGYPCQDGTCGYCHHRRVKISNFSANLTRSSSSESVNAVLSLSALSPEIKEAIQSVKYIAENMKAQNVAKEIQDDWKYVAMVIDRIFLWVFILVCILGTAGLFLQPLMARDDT
# T2 sequence (P12392 21-495): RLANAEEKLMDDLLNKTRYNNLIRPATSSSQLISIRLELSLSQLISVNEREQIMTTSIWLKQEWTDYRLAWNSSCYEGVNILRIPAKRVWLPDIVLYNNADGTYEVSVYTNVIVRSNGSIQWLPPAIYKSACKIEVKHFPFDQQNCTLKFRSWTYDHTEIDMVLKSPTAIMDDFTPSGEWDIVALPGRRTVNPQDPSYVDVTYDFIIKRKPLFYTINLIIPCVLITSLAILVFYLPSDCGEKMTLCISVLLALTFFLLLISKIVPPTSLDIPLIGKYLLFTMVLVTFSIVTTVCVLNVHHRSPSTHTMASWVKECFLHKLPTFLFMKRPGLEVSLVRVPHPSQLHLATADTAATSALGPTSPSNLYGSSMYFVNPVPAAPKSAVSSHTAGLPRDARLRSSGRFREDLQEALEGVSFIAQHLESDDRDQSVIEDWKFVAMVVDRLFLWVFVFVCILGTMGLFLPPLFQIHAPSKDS
# rat α3β2 nAChR = target: T3, rat α3β2 nAChR (Rattus norvegicus, UniProt P04757+P12390); test: cell-based
# T3 construct: expressed in transfected cells; host or cells: Xenopus laevis oocytes injected with cRNA; plasmids from J. Michael McIntosh (University of Utah)
# T3 sequence (P04757 26-499 limits assumed): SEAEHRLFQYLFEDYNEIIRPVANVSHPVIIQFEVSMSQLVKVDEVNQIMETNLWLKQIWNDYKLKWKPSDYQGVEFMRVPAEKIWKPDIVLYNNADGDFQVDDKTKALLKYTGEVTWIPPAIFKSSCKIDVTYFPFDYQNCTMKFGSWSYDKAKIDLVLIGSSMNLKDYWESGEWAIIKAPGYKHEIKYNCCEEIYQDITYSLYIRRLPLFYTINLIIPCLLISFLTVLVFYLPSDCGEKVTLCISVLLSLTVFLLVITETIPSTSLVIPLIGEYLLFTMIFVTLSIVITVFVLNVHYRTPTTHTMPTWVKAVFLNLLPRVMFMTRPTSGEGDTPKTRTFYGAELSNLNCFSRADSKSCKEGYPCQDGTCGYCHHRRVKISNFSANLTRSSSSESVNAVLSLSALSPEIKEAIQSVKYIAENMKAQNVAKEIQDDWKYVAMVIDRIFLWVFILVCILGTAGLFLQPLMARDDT
# T3 sequence (P12390 25-500 limits assumed): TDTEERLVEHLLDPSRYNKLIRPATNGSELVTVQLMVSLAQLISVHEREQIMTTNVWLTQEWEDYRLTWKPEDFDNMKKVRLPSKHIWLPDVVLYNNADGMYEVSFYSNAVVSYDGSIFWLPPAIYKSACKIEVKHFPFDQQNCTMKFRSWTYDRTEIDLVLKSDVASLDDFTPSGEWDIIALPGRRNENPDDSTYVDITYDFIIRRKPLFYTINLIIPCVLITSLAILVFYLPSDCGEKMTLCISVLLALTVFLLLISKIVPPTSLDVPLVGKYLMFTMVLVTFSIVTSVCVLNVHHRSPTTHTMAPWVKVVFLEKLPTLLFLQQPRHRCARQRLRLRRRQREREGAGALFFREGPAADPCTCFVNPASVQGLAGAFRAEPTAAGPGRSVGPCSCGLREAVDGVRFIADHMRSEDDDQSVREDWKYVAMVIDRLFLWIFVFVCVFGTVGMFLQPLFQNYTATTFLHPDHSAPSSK
# [1] = not given; remark: listed apart in the source
# [2] = target: T4, α7 nAChRs in rat brain slices (Rattus norvegicus, UniProt Q05941)
# T4 construct: from tissue; host or cells: frozen brain slices of ten-week-old rats (hippocampus, striatum, cortex, cerebellum)
# T4 sequence (Q05941 23-502): as the sequence (Q05941 23-502) above
smiles,measurement,setting,value
"CC1=CC(C)=[N+]2C1=Cc1ccc(CCC(=O)NCC(=O)N[C@H]3CSSC[C@@H]4NC(=O)[C@@H]5CCCN5C(=O)[C@@H]5CCCN5C(=O)[C@H](CC(N)=O)NC(=O)[C@H](CO)NC(=O)[C@H](CSSC[C@@H](C(N)=O)NC(=O)[C@H](Cc5c[nH]cn5)NC(=O)[C@H](CCC(=O)O)NC(=O)[C@H](Cc5c[nH]cn5)NC(=O)[C@H](C)NC4=O)NC3=O)n1[B-]2(F)F [LvIB-B] ({BODIPY(FL)}-GCCSNPPCAHEHC-NH2; disulfide 2-8, 3-13)",IC50,rat α7 nAChRs,187 nM
same,inhibition rate of ACh-evoked current,rat α7 nAChRs,96 ± 0.11%
same,inhibition rate,rat α6/α3β4 nAChRs,0 ± 2%
same,inhibition rate,rat α3β2 nAChR,64 ± 4%
same,IC50,rat α3β2 nAChR,2550 nM and 10900 nM
same,emission wavelength (Em),,510 nm
same,excitation wavelength (Ex),[1],505 nm
"C[C@@H]1NC(=O)[C@@H]2CSSC[C@H](NC(=O)CNC(=O)CCCCCN3/C(=C/C=C/C4=[N+](C)c5ccccc5C4(C)C)C(C)(C)c4ccccc43)C(=O)N[C@@H](CSSC[C@@H](C(N)=O)NC(=O)[C@H](Cc3c[nH]cn3)NC(=O)[C@H](CCC(=O)O)NC(=O)[C@H](Cc3c[nH]cn3)NC1=O)C(=O)N[C@@H](CO)C(=O)N[C@@H](CC(N)=O)C(=O)N1CCC[C@H]1C(=O)N1CCC[C@H]1C(=O)N2 [LvIB-C] (X1-GCCSNPPCAHEHC-NH2; disulfide 2-8, 3-13)",Hill Slope,rat α7 nAChRs,1.39 (1.05–1.72)
same,IC50,rat α7 nAChRs,298 nM
same,inhibition rate of ACh-evoked current,rat α7 nAChRs,94 ± 0.20%
same,time to ~90% current restoration after block (recovery/washout),rat α7 nAChRs,≤ 14 min
same,inhibition rate,rat α6/α3β4 nAChRs,10 ± 0.3%
same,inhibition rate,rat α3β2 nAChR,50 ± 2%
same,IC50,rat α3β2 nAChR,10900 nM and 2550 nM
same,fluorescence labelling of brain regions,[2],"distinct fluorescence distribution in the hippocampus, striatum, and cortex"
same,emission wavelength (Em),,570 nm
same,excitation wavelength (Ex),[1],550 nm
"C[C@@H]1NC(=O)[C@@H]2CSSC[C@H](NC(=O)CNC(=O)c3ccc(C(=O)[O-])c(-c4c5ccc(=[N+](C)C)cc-5oc5cc(N(C)C)ccc45)c3)C(=O)N[C@@H](CSSC[C@@H](C(N)=O)NC(=O)[C@H](Cc3c[nH]cn3)NC(=O)[C@H](CCC(=O)O)NC(=O)[C@H](Cc3c[nH]cn3)NC1=O)C(=O)N[C@@H](CO)C(=O)N[C@@H](CC(N)=O)C(=O)N1CCC[C@H]1C(=O)N1CCC[C@H]1C(=O)N2 [LvIB-R] (X2-GCCSNPPCAHEHC-NH2; disulfide 2-8, 3-13)",Hill Slope,rat α7 nAChRs,0.89 (0.67–1.14)
same,IC50,rat α7 nAChRs,643 nM
same,inhibition rate of ACh-evoked current,rat α7 nAChRs,87 ± 0.24%
same,time to ~90% current restoration after block (recovery/washout),rat α7 nAChRs,≤ 14 min
same,fluorescence labelling of brain regions,[2],"distinct fluorescence distribution in the hippocampus, striatum, and cortex"
same,emission wavelength (Em),,580 nm
same,excitation wavelength (Ex),[1],555 nm

# — paper PMC11122421 (Marine Drugs, 2024)
